According to patent US8501752B2, “Methods for treating cancer and other pathological proliferating disorders by inhibiting mitosis using pyrrolo[2,3-d]pyrimidines” (Duquesne University of the Holy Ghost, priority 2005, dated 2013):

Legend:
A498 = assay: NCI IVCLSP growth inhibition (SRB), A498; assay type: cell-based, human; conditions: renal cancer A498 cell
Protocol: (§1) FIG. 1 presents nine compounds that were tested using the National Cancer Institute (NCI) 60 human tumor cell lines. The cells lines, which represent leukemia, melanoma, and cancers of the lung, colon, brain, ovary, breast, prostate, and kidney, are listed in Table 1.
Compounds 1-9 were tested according to the NCI Developmental Therapeutics Program (DTP) In Vitro Cell Line Screening Project (IVCLSP). […] Methodology for testing under the IVCLSP is as follows: The human tumor cell lines of the cancer screening panel are grown in RPMI 1640 medium containing 5% fetal bovine serum and 2 mM L-glutamine. […]
Following drug addition, the plates are incubated for an additional 48 h at 37° C., 5% CO2, 95% air, and 100% relative humidity. […] Bound stain is subsequently solubilized with 10 mM trizma base, and the absorbance is read on an automated plate reader at a wavelength of 515 nm. […] Using the seven absorbance measurements [time zero, (Tz), control growth, (C), and test growth in the presence of drug at the five concentration levels (Ti)], the percentage growth is calculated at each of the drug concentrations levels. Percentage growth inhibition is calculated as: [(Ti−Tz)/(C−Tz)]×100 for concentrations for which Ti>/=Tz [(Ti−Tz)/Tz]×100 for concentrations for which Ti<Tz.
Three dose response parameters are calculated for each experimental agent. […]

[1] = system: NCI 60 human tumor cell lines; assay: NCI IVCLSP growth inhibition, whole panel (text summaries); assay type: cell-based; conditions: NCI 60 tumor panel
Protocol: as §1
Compounds 1-9 were tested according to the NCI Developmental Therapeutics Program (DTP) In Vitro Cell Line Screening Project (IVCLSP). […] Methodology for testing under the IVCLSP is as follows: The human tumor cell lines of the cancer screening panel are grown in RPMI 1640 medium containing 5% fetal bovine serum and 2 mM L-glutamine. For a typical screening experiment, cells are inoculated into 96 well microtiter plates in 100 μL at plating densities ranging from 5,000 to 40,000 cells/well depending on the doubling time of individual cell lines. After cell inoculation, the microtiter plates are incubated at 37° C., 5% CO2, 95% air and 100% relative humidity for 24 h prior to addition of experimental drugs.
After 24 h, two plates of each cell line are fixed in situ with TCA, to represent a measurement of the cell population for each cell line at the time of drug addition (Tz). Experimental drugs are solubilized in dimethyl sulfoxide at 400-fold the desired final maximum test concentration and stored frozen prior to use. At the time of drug addition, an aliquot of frozen concentrate is thawed and diluted to twice the desired final maximum test concentration with complete medium containing 50 μg/ml gentamicin. Additional four, 10-fold or ½ log serial dilutions are made to provide a total of five drug concentrations plus control. Aliquots of 100 μl of these different drug dilutions are added to the appropriate microtiter wells already containing 100 μl of medium, resulting in the required final drug concentrations.
Following drug addition, the plates are incubated for an additional 48 h at 37° C., 5% CO2, 95% air, and 100% relative humidity. For adherent cells, the assay is terminated by the addition of cold TCA. Cells are fixed in situ by the gentle addition of 50 μl of cold 50% (w/v) TCA (final concentration, 10% TCA) and incubated for 60 minutes at 4° C. The supernatant is discarded, and the plates are washed five times with tap water and air dried. Sulforhodamine B (SRB) solution (100 μl) at 0.4% (w/v) in 1% acetic acid is added to each well, and plates are incubated for 10 minutes at room temperature. After staining, unbound dye is removed by washing five times with 1% acetic acid and the plates are air dried. Bound stain is subsequently solubilized with 10 mM trizma base, and the absorbance is read on an automated plate reader at a wavelength of 515 nm. For suspension cells, the methodology is the same except that the assay is terminated by fixing settled cells at the bottom of the wells by gently adding 50 μl of 80% TCA (final concentration, 16% TCA). Using the seven absorbance measurements [time zero, (Tz), control growth, (C), and test growth in the presence of drug at the five concentration levels (Ti)], the percentage growth is calculated at each of the drug concentrations levels. Percentage growth inhibition is calculated as: [(Ti−Tz)/(C−Tz)]×100 for concentrations for which Ti>/=Tz [(Ti−Tz)/Tz]×100 for concentrations for which Ti<Tz.
Three dose response parameters are calculated for each experimental agent. […] The drug concentration resulting in total growth inhibition (TGI) is calculated from Ti=Tz. […]

[2] = system: T24 human bladder carcinoma cells; assay: Cytotoxicity, T24 cells; assay type: cell-based; conditions: mean ± SEM for 3 experiments
P-glycoprotein = target: T1, P-glycoprotein (Homo sapiens, UniProt P08183); assay: P-glycoprotein antagonism: sensitivity of NCI/ADR cells to vinblastine; assay type: cell-based; conditions: absence or presence of 50 nM vinblastine
T1 construct: NCI/ADR cells that overexpress P-glycoprotein; endogenous in cells; host or cells: NCI/ADR cells
Description: To determine if this is due to inhibition of drug transport activity by these proteins, the effects of these compounds on P-glycoprotein were further characterized. The effects of the compounds on the sensitivity of NCI/ADR cells to vinblastine and of MCF-7/VP cells to vincristine were examined to evaluate antagonism of P-glycoprotein and MRP1, respectively. FIGS. 4a-b present graphs of antagonism score versus concentration for P-glycoprotein and MRP1, respectively.
The Pgp antagonism score is calculated as the percentage survival of cells in the absence of vinblastine/percentage survival in the presence of vinblastine. […] The MRP1 antagonism score is calculated as the percentage survival of cells in the absence of vincristine/percentage survival in the presence of vincristine. […] Concentrations of Compounds 1-5 above their IC50 toward MCF-7 cells are not indicated. Data for one of three similar experiments is shown.

MCF-7 cells = assay: Cytotoxicity, drug-sensitive MCF-7 cells; conditions: read-out: Cytotoxicity IC50, MCF-7; mean ± SEM for 3 experiments
Description: (§2) These cell lines are resistant to anticancer drugs due to overexpression of the transport proteins P-glycoprotein or MRP1.

MCF-7/VP cells = assay: Cytotoxicity, MCF-7/VP cells that overexpress MRP1; conditions: read-out: Cytotoxicity IC50, MCF-7/VP; mean ± SEM for 3 experiments
Description: as §2

NCI/ADR cells = assay: Cytotoxicity, NCI/ADR cells that overexpress P-glycoprotein
Description: as §2

T1 sequence (P08183 whole entry): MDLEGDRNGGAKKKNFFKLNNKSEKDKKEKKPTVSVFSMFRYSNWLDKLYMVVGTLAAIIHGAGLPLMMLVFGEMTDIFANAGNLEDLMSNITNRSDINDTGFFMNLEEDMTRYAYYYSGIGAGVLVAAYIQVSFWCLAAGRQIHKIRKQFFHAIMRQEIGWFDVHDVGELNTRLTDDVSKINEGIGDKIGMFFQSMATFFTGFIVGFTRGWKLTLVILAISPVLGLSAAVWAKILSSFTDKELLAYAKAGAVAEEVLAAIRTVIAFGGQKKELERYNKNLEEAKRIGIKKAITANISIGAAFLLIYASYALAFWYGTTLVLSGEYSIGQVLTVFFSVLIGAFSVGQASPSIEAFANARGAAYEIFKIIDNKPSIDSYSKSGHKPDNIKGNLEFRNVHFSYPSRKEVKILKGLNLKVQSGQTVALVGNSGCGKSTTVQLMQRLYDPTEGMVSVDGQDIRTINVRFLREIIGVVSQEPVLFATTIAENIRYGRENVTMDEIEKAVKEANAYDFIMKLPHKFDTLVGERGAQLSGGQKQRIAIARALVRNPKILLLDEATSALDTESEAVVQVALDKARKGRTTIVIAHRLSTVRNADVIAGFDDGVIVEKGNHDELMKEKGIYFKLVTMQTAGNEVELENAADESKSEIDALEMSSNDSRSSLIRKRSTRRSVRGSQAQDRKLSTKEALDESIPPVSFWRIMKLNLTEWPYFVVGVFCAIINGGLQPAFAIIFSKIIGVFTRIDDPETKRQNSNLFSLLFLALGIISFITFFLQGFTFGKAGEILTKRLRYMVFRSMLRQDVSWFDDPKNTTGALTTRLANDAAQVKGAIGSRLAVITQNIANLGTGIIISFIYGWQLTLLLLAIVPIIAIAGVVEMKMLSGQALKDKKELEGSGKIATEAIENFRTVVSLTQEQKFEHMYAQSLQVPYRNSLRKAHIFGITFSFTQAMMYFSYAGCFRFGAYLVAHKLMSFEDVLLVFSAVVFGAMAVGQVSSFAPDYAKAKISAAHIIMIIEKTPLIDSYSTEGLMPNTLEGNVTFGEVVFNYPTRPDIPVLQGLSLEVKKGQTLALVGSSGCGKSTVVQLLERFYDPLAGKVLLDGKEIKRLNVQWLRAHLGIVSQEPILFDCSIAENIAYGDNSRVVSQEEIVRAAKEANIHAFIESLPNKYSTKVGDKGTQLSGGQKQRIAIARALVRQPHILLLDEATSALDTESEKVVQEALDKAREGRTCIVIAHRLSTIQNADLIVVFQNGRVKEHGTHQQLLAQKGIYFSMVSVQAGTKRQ

Which “GI50 level (in words)” value (A498) does the source give for COc1cccc(CCc2cn(Cc3ccccc3)c3nc(N)nc(C)c23)c1 [Compound 3] here?
Its value is “two digit nanomolar level”.

What about the “GI50 values, level across the tumor cell lines (in words)” value [1] of the same compound?
The value was “micromolar range for 8 of the 56 tumor cell lines”.

What about the IC50 [2] of the same compound?
Its IC50 is 25 ± 2.9 µM.

And the “effect on P-glycoprotein-mediated resistance (in words)” value (P-glycoprotein)?
The value was “dose-dependent sensitization”.

What about the IC50 (MCF-7 cells) of the same compound?
Its IC50 is 8 ± 3.5 µM.

What about the IC50 (MCF-7/VP cells) of the same compound?
The IC50 was 22 ± 4.2 µM.

And the “change of cytotoxic potency by substitution (in words)” value (NCI/ADR cells; NCI/ADR, relative to unsubstituted Compound 5)?
Its value is “enhanced the potency”.

What about the IC50 (NCI/ADR cells; read-out: Cytotoxicity IC50, NCI/ADR, mean ± SEM for 3 experiments) of the same compound?
Its IC50 is 5.7 ± 0.7 µM.
